Three compounds from patent publication US12723063B2, “GIPR-agonist compounds” (Eli Lilly and Company, priority 2019, dated 2026) can be followed below.

In general, EC50 refers to the concentration needed to bring the measured effect to its halfway point. In general, Ki refers to the equilibrium dissociation constant of an inhibitor or competing ligand from its target.

For data set [1], the target named is T1, human glucagon receptor (GcgR) (Homo sapiens, UniProt P47871).
T1 construct: expressed in transfected cells; host or cells: HEK293
T1 sequence (P47871 26-477): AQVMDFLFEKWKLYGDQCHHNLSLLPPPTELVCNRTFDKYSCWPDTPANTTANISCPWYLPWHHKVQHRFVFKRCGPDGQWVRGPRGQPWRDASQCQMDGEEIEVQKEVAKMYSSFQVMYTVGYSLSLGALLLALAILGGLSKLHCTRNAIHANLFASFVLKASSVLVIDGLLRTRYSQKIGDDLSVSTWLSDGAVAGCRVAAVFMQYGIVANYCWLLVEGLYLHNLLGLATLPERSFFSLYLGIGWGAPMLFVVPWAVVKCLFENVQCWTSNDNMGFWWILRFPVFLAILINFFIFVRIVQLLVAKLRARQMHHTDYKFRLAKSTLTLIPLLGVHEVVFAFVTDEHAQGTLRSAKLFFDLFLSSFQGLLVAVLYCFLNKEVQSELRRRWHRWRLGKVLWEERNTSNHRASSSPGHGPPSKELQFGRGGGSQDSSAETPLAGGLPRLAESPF
Kind of data set: cAMP functional assay (HTRF) in HEK293 cells in presence of 0.1% casein. It is filed as cell-based. The following applies: HEK293 cells expressing human GcgR, geometric mean, read-out: hGcgR cAMP Rel EC50 nM (SEM, n). Here is the method: (§1) Each receptor over-expressing cell line (20 μl) is treated with the test peptide in DMEM (Gibco Cat #31053) supplemented with 0.1% Casein (Sigma Cat #C4765), 250 μM IBMX, 1× GlutaMAX™ (Gibco Cat #35050), and 20 mM HEPES (HyClone Cat #SH30237.01) in a 20 μl assay volume. After incubating for 60 minutes at room temperature, the resulting increase in intracellular CAMP is quantitatively determined using the CisBio CAMP Dynamic 2 HTRF Assay Kit (62AM4PEJ). The Lysis buffer containing cAMP-d2 conjugate (20 μl) and the antibody anti-cAMP-Eu3+-Cryptate (20 μl) are then added to determine the cAMP level. After incubating 60 minutes at room temperature, HTRF signal is detected with an Envision 2104 plate reader (PerkinElmer). Fluorescent emission at 620 nm and at 665 nm is measured and the ratio between 620 nm and at 665 nm is calculated and then are converted to nM cAMP per well using a cAMP standard curve. Dose response curves of compounds are plotted as the percentage of stimulation normalized to minimum (buffer only) and maximum (maximum concentration of each control ligand) values and analyzed using a four parameter non-linear regression fit with a variable slope (Genedata Screener 13). EC50 is the concentration of compound causing half-maximal simulation in a dose response curve. A relative EC50 value is derived by non-linear regression analysis using the percent maximal response vs, the concentration of peptide added, fitted to a four-parameter logistic equation.
(§2) Intracellular cAMP levels are determined by extrapolation using a standard curve. Dose response curves of compounds are plotted as the percentage of stimulation normalized to minimum (buffer only) and maximum (maximum concentration of each control ligand) values and analyzed using a four-parameter non-linear regression fit with a variable slope (Genedata Screener 13). EC50 is the concentration of compound causing half-maximal simulation in a dose response curve. Each relative EC50 value for the geometric mean calculation is determined from a curve fitting.
(§3) Concentration response curves of compounds are plotted as the percentage of stimulation normalized to minimum (buffer only) and maximum (maximum concentration of each control ligand) values and analyzed using a four-parameter non-linear regression fit with a variable slope (Genedata Screener 13). EC50 is the concentration of compound causing half-maximal simulation in a dose response curve. […] The standard error of the mean is reported:
(§4) [formula] • The log transform accounts for the EC50 values falling on a multiplicative, rather than an arithmetic scale.
(§5) For illustration, as shown by Example 1, the peptide is tested in 8 runs of the hGIPR CAMP assay. […] Accordingly, each Example will use the geometric mean of those values to normalize the Example assay runs.

Data set [2] has as its target T2, human glucose-dependent insulinotropic peptide receptor (GIPR) (Homo sapiens, UniProt P48546).
T2 construct: expressed in transfected cells; host or cells: HEK293
T2 sequence (P48546 22-466): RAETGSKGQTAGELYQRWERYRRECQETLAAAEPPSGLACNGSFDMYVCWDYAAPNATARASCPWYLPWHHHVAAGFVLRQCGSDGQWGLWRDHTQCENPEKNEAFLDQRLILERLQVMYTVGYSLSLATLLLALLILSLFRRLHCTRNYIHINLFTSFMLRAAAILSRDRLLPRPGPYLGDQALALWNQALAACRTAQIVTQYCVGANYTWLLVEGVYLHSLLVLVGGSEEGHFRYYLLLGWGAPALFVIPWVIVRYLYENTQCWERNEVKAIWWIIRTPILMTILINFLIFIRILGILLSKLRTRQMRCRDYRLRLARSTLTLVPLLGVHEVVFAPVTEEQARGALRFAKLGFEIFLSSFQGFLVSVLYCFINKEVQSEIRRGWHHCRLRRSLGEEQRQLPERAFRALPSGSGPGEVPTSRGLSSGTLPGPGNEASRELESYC
The data set is described as above. It is filed as cell-based. To be noted: HEK293 cells expressing human GIPR, geometric mean, read-out: hGIPR cAMP Rel EC50 nM (SEM, n). The method, then: as §1, §2, §3, §4, §5

Data set [3] deals with T3, human GLP-1 receptor (GLP-1R) (Homo sapiens, UniProt P43220).
T3 construct: expressed in transfected cells; host or cells: HEK293
T3 sequence (P43220 24-463): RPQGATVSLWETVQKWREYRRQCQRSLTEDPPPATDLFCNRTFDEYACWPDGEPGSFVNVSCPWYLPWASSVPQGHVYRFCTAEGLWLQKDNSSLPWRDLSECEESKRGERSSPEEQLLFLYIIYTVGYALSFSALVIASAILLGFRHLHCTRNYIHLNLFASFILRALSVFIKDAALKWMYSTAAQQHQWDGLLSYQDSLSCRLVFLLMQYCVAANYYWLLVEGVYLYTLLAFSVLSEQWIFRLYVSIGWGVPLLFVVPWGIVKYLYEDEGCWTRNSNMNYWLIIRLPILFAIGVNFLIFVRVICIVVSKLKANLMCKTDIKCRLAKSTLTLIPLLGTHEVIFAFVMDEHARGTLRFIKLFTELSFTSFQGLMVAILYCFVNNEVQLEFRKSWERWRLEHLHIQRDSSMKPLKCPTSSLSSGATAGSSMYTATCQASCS
Described as above. It is filed as cell-based. To be noted: HEK293 cells expressing human GLP-1R, geometric mean, read-out: hGLP1R cAMP Rel EC50 nM (SEM, n). Here is the method: as §1, §2, §3, §4, §5

Another data set addresses T4, human GLP-1R (Homo sapiens, UniProt P43220).
T4 construct: expressed in transfected cells; crude membranes
The data set is described as follows: [125I]-GLP-1 binding, SPA with WGA beads, 0.1% bacitracin. The following applies: geometric mean, read-out: hGLP1R Ki. The method, then: (§6) Stably transfected cell lines are prepared by subcloning receptor cDNA into a pcDNA3 expression plasmid and transfected into human embryonic kidney (HEK) 293 (hGcgR and hGLP-1R) or Chinese Hamster Ovary (CHO) (hGIPR) cells followed by selection with Geneticin (hGLP-1R and hGIPR) or hygromycin B (hGcgR).
(§7) Two methods are used for the preparation of crude cell membranes.
(§8) Method 1: Frozen cell pellets are lysed on ice in hypotonic buffer containing 50 mM Tris HCl, pH 7.5, and Roche Complete™ Protease Inhibitors with EDTA. The cell suspension is disrupted using a glass Potter-Elvehjem homogenizer fitted with a Teflon® pestle for 25 strokes. The homogenate is centrifuged at 4° C. at 1100× g for 10 minutes. The supernatant is collected and stored on ice while the pellets are resuspended in homogenization buffer and rehomogenized as described above. The homogenate is centrifuged at 1100× g for 10 minutes. The second supernatant is combined with the first supernatant and centrifuged at 35000× g for 1 hour at 4° C. The resulting membrane pellet is resuspended in homogenization buffer containing protease inhibitors at approximately 1 to 3 mg/mL, quick frozen in liquid nitrogen and stored as aliquots in a −80° C. freezer until use.
(§9) Method 2: Frozen cell pellets are lysed on ice in hypotonic buffer containing 50 mM Tris HCl, pH 7.5, 1 mM MgCl2, Roche Complete™ EDTA-free Protease Inhibitors and 25 units/mL DNAse I (Invitrogen). The cell suspension is disrupted using a glass Potter-Elvehjem homogenizer fitted with a Teflon® pestle for 20 to 25 strokes. The homogenate is centrifuged at 4° C. at 1800× g for 15 minutes. The supernatant is collected and stored on ice while the pellets are resuspended in homogenization buffer (without DNAse I) and rehomogenized as described above. The homogenate is centrifuged at 1800× g for 15 minutes. The second supernatant is combined with the first supernatant and centrifuged an additional time at 1800× g for 15 minutes. The overall supernatant is then centrifuged at 25000× g for 30 minutes at 4° C. The resulting membrane pellet is resuspended in homogenization buffer (without DNAse I) containing protease inhibitors at approximately 1 to 3 mg/mL and stored as aliquots in a −80° C. freezer until use.
The binding buffer contains 25 mM HEPES, pH 7.4, 2.5 mM CaCl2), 1 mM MgCl2, 0.1% (w/v) bacitracin, 0.003% (w/v) TWEEN®-20, and Roche Complete™ Protease Inhibitors without EDTA.
(§10) Data are analyzed using four-parameter (curve maximum, curve minimum, IC50, Hill slope) nonlinear regression routines (Genedata Screener, version 12.0.4, Genedata AG, Basal, Switzerland). […] Values for Ki are reported as the geometric mean, with error expressed as the standard error of the mean (SEM) and n is equal to the number of independent replicates (determined in assays performed on different days). […] SEM is only calculated when […] or greater. Means are expressed as geometric means with the standard error of the mean (SEM) and the number of replicates (n) indicated in parentheses.

Another data set has as its target T5, human GIPR (Homo sapiens, UniProt P48546).
T5 construct: expressed in transfected cells; crude membranes
T5 sequence (P48546 22-466): T2 sequence (P48546 22-466)
Kind of data set: [125I]-GIP binding, SPA with WGA beads, 0.1% bacitracin. To be noted: geometric mean, read-out: hGIPR Ki. The method, then: as §6, §7, §8, §9
The binding buffer contains 25 mM HEPES, pH 7.4, 2.5 mM CaCl2), 1 mM MgCl2, 0.1% (w/v) bacitracin, 0.003% (w/v) TWEEN®-20, and Roche Complete™ Protease Inhibitors without EDTA. […] Plates are sealed and mixed on a plate shaker (setting 6) for 1 minute and read with a PerkinElmer Trilux MicroBeta® scintillation counter after 2.5 to 12 hours of incubation/settling time at room temperature.
as §10

Data set [4] relates to CD4+ T cells (CD8+ T cell-depleted PBMCs). The data set is described as follows: CD4+ T cell proliferation assay (immunogenicity assessment). Type of data set: cell-based, human. The following applies: 0.33 μM, 7 days. Here is the method: Protein therapeutics that induce less than 30% positive response in the CD4+ T cell proliferation assay are associated with a low risk of immunogenicity. Briefly, to assess the propensity for a clinical immunogenic response to the compounds of Examples 1, 2, 3, 5, and 6, CD8+ T cell-depleted peripheral blood mononuclear cells (PBMCs) are prepared and labeled with carboxyfluorescein diacetate succinimidyl ester (CFSE; Invitrogen) from a cohort of 10 healthy donors with diverse human leukocyte antigen (HLA) class II haplotypes. Each donor is tested in triplicate with 2.0 mL media control, keyhole limpet hemocyanin (KLH: 0.33 μM), and the compounds of Examples 1, 2, 3, 5, and 6 (0.33 μM). Cultures are incubated for 7 days at 37° C. with 5% CO2. On day 7, samples are analyzed by flow cytometry using a BD LSR II Fortessa (Becton Dickinson; Franklin Lakes, NJ), equipped with a high throughput sampler (HTS). Data is analyzed using FlowJo® Software (FlowJo, LLC/TreeStar; Ashland, OR).
• Cell Division Index (“CDI”): proportion of divided CD4+ T cells to the total number of CD4+ T cells in stimulated versus unstimulated samples.

*1 amine or outer side, *2 acyl side, *3 side chain or, on linkers, in order; H or OH if unused. Where a SMILES comes first, the peptide text is derived from it. Side-chain parts run from the residue outwards. [ ]: non-standard residue; d: D form. The star is where a group is joined. C20 diacid = O=C(O)CCCCCCCCCCCCCCCCCCC(=O)*; γGlu = O=C(O)[C@H](CCC(=O)[*:2])N[*:1]; αMeL = CC(C)C[C@](C)(N)C(=O)O; AEEA = NCCOCCOCC(=O)O; Aib = CC(C)(N)C(=O)O

T4 sequence (P43220 24-463): as above

For `CC[C@H](C)[C@H](NC(=O)[C@H](Cc1ccccc1)NC(=O)[C@@H](NC(=O)CNC(=O)[C@H](CCC(=O)O)NC(=O)C(C)(C)NC(=O)[C@@H](N)Cc1ccc(O)cc1)[C@@H](C)O)C(=O)N[C@@H](CO)C(=O)N[C@@H](CC(=O)O)C(=O)N[C@@H](Cc1ccc(O)cc1)C(=O)N[C@@H](CO)C(=O)N[C@H](C(=O)N[C@@](C)(CC(C)C)C(=O)N[C@@H](CC(C)C)C(=O)N[C@@H](CC(=O)O)C(=O)N[C@@H](CCCCN)C(=O)N[C@@H](CCCCNC(=O)COCCOCCNC(=O)COCCOCCNC(=O)CC[C@H](NC(=O)CCCCCCCCCCCCCCCCCCC(=O)O)C(=O)O)C(=O)N[C@@H](Cc1c[nH]cn1)C(=O)N[C@@H](CCC(N)=O)C(=O)NC(C)(C)C(=O)N[C@@H](CC(=O)O)C(=O)N[C@@H](Cc1ccccc1)C(=O)N[C@H](C(=O)N[C@@H](CCC(=O)O)C(=O)N[C@@H](Cc1ccc(O)cc1)C(=O)N[C@@H](CC(C)C)C(=O)N[C@@H](CC(C)C)C(=O)N[C@@H](CCC(=O)O)C(=O)N[C@@H](CCC(N)=O)C(=O)NCC(=O)N1CCC[C@H]1C(=O)N[C@@H](CO)C(=O)N[C@@H](CO)C(=O)NCC(=O)N[C@@H](C)C(=O)N1CCC[C@H]1C(=O)N1CCC[C@H]1C(=O)N1CCC[C@H]1C(=O)N[C@@H](CO)C(N)=O)C(C)C)[C@@H](C)CC` [Example 67] (H-Y[Aib]EGTFISDYSI[αMeL]LDKK([AEEA-AEEA-γGlu-C20 diacid])HQ[Aib]DFVEYLLEQGPSSGAPPPS-NH2), the EC50 in data set [1] is greater than 5000 nM; in data set [2] it was 0.0627 nM; in data set [3] it was greater than 5000 nM.
In the case of `CC[C@H](C)[C@H](NC(=O)[C@H](CCCCN)NC(=O)[C@H](CC(=O)O)NC(=O)[C@H](CC(C)C)NC(=O)[C@](C)(CC(C)C)NC(=O)[C@@H](NC(=O)[C@H](CO)NC(=O)[C@H](Cc1ccc(O)cc1)NC(=O)[C@H](CC(=O)O)NC(=O)[C@H](CO)NC(=O)[C@@H](NC(=O)[C@H](Cc1ccccc1)NC(=O)[C@@H](NC(=O)CNC(=O)[C@H](CCC(=O)O)NC(=O)C(C)(C)NC(=O)[C@@H](N)Cc1ccc(O)cc1)[C@@H](C)O)[C@@H](C)CC)[C@@H](C)CC)C(=O)N[C@@H](CCCNC(=N)N)C(=O)N[C@@H](CCC(N)=O)C(=O)NC(C)(C)C(=O)N[C@@H](CC(=O)O)C(=O)N[C@@H](Cc1ccccc1)C(=O)N[C@H](C(=O)N[C@@H](CCC(=O)O)C(=O)N[C@@H](Cc1ccc(O)cc1)C(=O)N[C@@H](CCCCNC(=O)COCCOCCNC(=O)COCCOCCNC(=O)CC[C@H](NC(=O)CCCCCCCCCCCCCCCCCCC(=O)O)C(=O)O)C(=O)N[C@@H](CC(C)C)C(=O)N[C@@H](CCC(=O)O)C(=O)N[C@@H](C)C(=O)NCC(=O)N1CCC[C@H]1C(=O)N[C@@H](CO)C(=O)N[C@@H](CO)C(=O)NCC(=O)N[C@@H](C)C(=O)N1CCC[C@H]1C(=O)N1CCC[C@H]1C(=O)N1CCC[C@H]1C(=O)N[C@@H](CO)C(N)=O)C(C)C` [Example 118] (H-Y[Aib]EGTFISDYSI[αMeL]LDKIRQ[Aib]DFVEYK([AEEA-AEEA-γGlu-C20 diacid])LEAGPSSGAPPPS-NH2), the Ki is greater than 920 nM on human GLP-1R and 0.0696 nM at human GIPR. For the same compound, the EC50 is greater than 5000 nM in data set [1], 0.0611 nM in data set [2] and greater than 5000 nM in data set [3].
For “keyhole limpet hemocyanin [KLH, reference compound]”, the “% Donor Response (n = 10)” value in data set [4] (10 healthy donors, positive response CDI>2.5) came to 100%. In addition, the “Median Response Strength in positive donors (CDI)” value in data set [4] (Cell Division Index) is on record as 164.285 (n = 10).
